Experimental data from paper PMC2994747, “Molecular Characterization of c-Abl/c-Src Kinase Inhibitors Targeted against Murine Tumour Progenitor Cells that Express Stem Cell Markers” (PLoS ONE, 2010).

Tests used:
A549 [1] = experiment: Western blot, semi-quantitative protein expression; assay type: cell-based, human
Method: (§1) For the Western Blot analysis, cells were rinsed and lysed as previously described. An amount of 25 µg protein was used for SDS-PAGE. Antibodies for c-Abl (sc-131), Actin (sc-1616), Cdc2-p34 (sc-8395), EPS15 (sc-1840), FAK (sc-558), c-Fos (sc-52), p38 (sc-7972), p53 (sc-6243) and STAT5 (sc-835x) were obtained from Santa Cruz (Santa Cruz Biotechnology, Heidelberg, Germany), while c-Src (2109) and phospho-Src Y416 (2101) were purchased from Cell Signaling (Cell Signaling Technology, Frankfurt a. M., Germany). The EGFR (06-847), phospho-EGFR Y992 (07-821) and phospho-EGFR Y1045 (04-284) stem from Upstate (Upstate, Schwalbach, Germany) and the hnRNP-K (A300-676A) from Bethyl Labs (Bethyl Laboratories, Montgomery, Texas, USA). Finally p73 (IMG-246) was supplied by Imgenex (Imgenex, Hamburg, Germany). Depending on the primary antibody the secondary antibodies were either horseradish peroxidase-conjugated anti-mouse (AP 160P), anti-rabbit (AP 132P) or anti-sheep (AP 147P) (Chemicon, Schwalbach, Germany).
(§2) Semi-quantitative analysis were carried out with Kodak 1D Image Analysis Software in reference to the vehicle treated control cells (see supplementary table S7).

CaCo2 [2] = experiment: Western blot, semi-quantitative protein expression; assay type: cell-based, human
Method: as §1, §2

BetaD5 = experiment: Western blot, semi-quantitative protein expression; assay type: cell-based, mouse
Method: as §1, §2

GammaA3 = experiment: Western blot, semi-quantitative protein expression; assay type: cell-based, mouse
Method: as §1, §2

A2C12 = experiment: Western blot, semi-quantitative protein expression; assay type: cell-based, mouse
Method: as §1, §2

GammaD12 = experiment: Western blot, semi-quantitative protein expression; assay type: cell-based, mouse
Method: as §1, §2

HepG2 = experiment: Cell cycle analysis by flow cytometry; assay type: cell-based, human; conditions: IC50 concentration, 96 h
In short: (§3)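 Step one: detach cells with trypsin and rinse with PBS. Step two: pellet, then treat with solution A for 10 min at room temperature. Step three: add solutions B and C, with the final incubation cold (4°C) and dark, before cytometric acquisition.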

A549 [3] = experiment: Cell cycle analysis by flow cytometry; assay type: cell-based, human; conditions: IC50 concentration, 96 h
In short: as §3

CaCo2 [4] = experiment: Cell cycle analysis by flow cytometry; assay type: cell-based, human; conditions: IC50 concentration, 96 h
In short: as §3

SMILES: Fc1ccccc1CNc1ncnc2c1cnn2CC(Cl)c1ccc(Br)cc1 (stereo not drawn) [Si162]
- Actin protein expression (A549 [1]): 62
- Cdc2-p34 protein expression (A549 [1]): 5.47
- EGFR Y1045-p protein expression (A549 [1]): 7
- EGFR protein expression (A549 [1]): 0.418
- EPS15 protein expression (A549 [1]): 10
- FAK protein expression (A549 [1]): 46
- STAT5 protein expression (A549 [1]): 17
- c-Abl protein expression (A549 [1]): 8.56
- c-Fos protein expression (A549 [1]): 10
- c-Src protein expression (A549 [1]): 49
- hnRNP-K protein expression (A549 [1]): 39
- p38 protein expression (A549 [1]): 19
- p53 protein expression (A549 [1]): 48
- p73 protein expression (A549 [1]): 10
- c-Src autophosphorylation (Tyr416), in words (A549 [1]; IC50 concentration, 96 h): inhibition of c-Src autophosphorylation
- Actin protein expression (CaCo2 [2]): 116
- Cdc2-p34 protein expression (CaCo2 [2]): 43
- EGFR Y992-p protein expression (CaCo2 [2]): 178
- EGFR Y1045-p protein expression (CaCo2 [2]): 131
- EPS15 protein expression (CaCo2 [2]): 42
- FAK protein expression (CaCo2 [2]): 52
- STAT5 protein expression (CaCo2 [2]): 69
- c-Abl protein expression (CaCo2 [2]): 114
- c-Fos protein expression (CaCo2 [2]): 35
- c-Src Y416-p protein expression (CaCo2 [2]): 213
- c-Src protein expression (CaCo2 [2]): 88
- hnRNP-K protein expression (CaCo2 [2]): 62
- p38 protein expression (CaCo2 [2]): 29
- p53 protein expression (CaCo2 [2]): 55
- p73 protein expression (CaCo2 [2]): 43
- Actin protein expression (BetaD5): 91
- EGFR Y992-p protein expression (BetaD5): 145
- EGFR Y1045-p protein expression (BetaD5): 733
- EGFR protein expression (BetaD5): 92
- EPS15 protein expression (BetaD5): 554
- FAK protein expression (BetaD5): 124
- STAT5 protein expression (BetaD5): 182
- c-Abl protein expression (BetaD5): 24
- c-Fos protein expression (BetaD5): 122
- c-Src Y416-p protein expression (BetaD5): 36
- c-Src protein expression (BetaD5): 110
- hnRNP-K protein expression (BetaD5): 20
- p38 protein expression (BetaD5): 39
- p53 protein expression (BetaD5): 443
- c-Src autophosphorylation (Tyr416), in words (BetaD5; IC50 concentration, 96 h): inhibition of c-Src autophosphorylation
- Actin protein expression (GammaA3): 83
- EGFR Y992-p protein expression (GammaA3): 77
- EGFR Y1045-p protein expression (GammaA3): 69
- EGFR protein expression (GammaA3): 1
- EPS15 protein expression (GammaA3): 90
- FAK protein expression (GammaA3): 111
- STAT5 protein expression (GammaA3): 46
- c-Abl protein expression (GammaA3): 1.79
- c-Src Y416-p protein expression (GammaA3): 205
- c-Src protein expression (GammaA3): 21
- hnRNP-K protein expression (GammaA3): 5
- p38 protein expression (GammaA3): 64
- p53 protein expression (GammaA3): 323
- Actin protein expression (A2C12): 99
- EGFR Y992-p protein expression (A2C12): 16
- EGFR Y1045-p protein expression (A2C12): 0.417
- EGFR protein expression (A2C12): 23
- EPS15 protein expression (A2C12): 104
- FAK protein expression (A2C12): 52
- STAT5 protein expression (A2C12): 34
- c-Abl protein expression (A2C12): 50
- c-Fos protein expression (A2C12): 60
- c-Src protein expression (A2C12): 121
- hnRNP-K protein expression (A2C12): 60
- p38 protein expression (A2C12): 20
- p53 protein expression (A2C12): 131
- p73 protein expression (A2C12): 40
- Actin protein expression (GammaD12): 91
- EGFR Y992-p protein expression (GammaD12): 237
- EGFR Y1045-p protein expression (GammaD12): 309
- EGFR protein expression (GammaD12): 65
- EPS15 protein expression (GammaD12): 179
- FAK protein expression (GammaD12): 108
- STAT5 protein expression (GammaD12): 82
- c-Abl protein expression (GammaD12): 195
- c-Fos protein expression (GammaD12): 123
- c-Src Y416-p protein expression (GammaD12): 105
- c-Src protein expression (GammaD12): 56
- hnRNP-K protein expression (GammaD12): 85
- p38 protein expression (GammaD12): 43
- p53 protein expression (GammaD12): 154
- Cells in G1 phase (HepG2): 17.8%
- Cells in G2 phase (HepG2): 63%
- Cells in S phase (HepG2): 19.3%
- Cells in G1 phase (A549 [3]): 8.5%
- Cells in G2 phase (A549 [3]): up to 72.3%
- Cells in S phase (A549 [3]): 19.2%
- Cells in G2 phase (A549 [3]; listed as Si 162): 72.3%
- Cells in G1 phase (CaCo2 [4]): 41.3%
- Cells in G2 phase (CaCo2 [4]): 12.3%
- Cells in S phase (CaCo2 [4]): 46.4%
